# Source: patent publication US9822414B2, “In vitro method for predicting in vivo genotoxicity of chemical compounds” (priority 2011, dated 2017)
# Values joined by “and” are separate entries in the source; they are usually repeats but may differ in a detail not shown here. Equal values may be shown once. Read-outs that look alike come from different tables or passages of the source.
# How the values were obtained:
# C10orf65/HOGA1 = assay: Gene expression of C10orf65/HOGA1 in HepG2 cells exposed to compound (microarray, log2 treatment:control ratio); assay type: cell-based, human; conditions: for C10orf65/HOGA1: expression versus reference value, single measurement of three; for Log2 treatment: control ratio C10orf65/HOGA1: 24 h exposure, Ames negative compounds, one line per replicate of triplicate experiments
# [1] = tested on: conventional in vitro genotoxicity assays; conditions: cited from earlier work
# rodents = conditions: cited from earlier work
# Salmonella typhimurium = conditions: cited from earlier work
# SLC40A1 = assay: Gene expression of SLC40A1 in HepG2 cells exposed to compound (microarray, log2 treatment:control ratio); assay type: cell-based, human; conditions: for Log2 treatment: control ratio SLC40A1: 24 h exposure, Ames negative compounds, one line per replicate of triplicate experiments
# PNMA6A = assay: Gene expression of PNMA6A in HepG2 cells exposed to compound (microarray, log2 treatment:control ratio); assay type: cell-based, human; conditions: for Log2 treatment: control ratio PNMA6A: 24 h exposure, Ames negative compounds, one line per replicate of triplicate experiments
# [2] = HepG2 cells, expression versus reference value, single measurement of three
# [3] = standard in vivo genotoxicity designation
SMILES,C10orf65/HOGA1 (C10orf65/HOGA1),In vitro GTX [1],In vivo GTX (rodents; in vivo),Standard (rodents; in vivo),SLC40A1 (SLC40A1; [2]),At least ⅔ genes +? (HepG2 cell),Average result over three measurements (HepG2 cell),Prediction (class prediction results using the method of the invention) (HepG2 cell),PNMA6A (PNMA6A; [2]),also measured
CC(=O)Nc1ccc(O)cc1 [APAP],− (below the reference value),+,+,GTX,− (below the reference value),,,,,Ames (Salmonella typhimurium; Ames results based on NTP data): −
ClC(Cl)Br [BDCM],,+,−,NGTX,− (below the reference value),NGTX,NGTX,NGTX,− (below the reference value),Log2 treatment: control ratio C10orf65/HOGA1 (C10orf65/HOGA1): 0.113 and 0.258 and 0.086; Ames (Salmonella typhimurium): −; Log2 treatment: control ratio SLC40A1 (SLC40A1; HepG2 cells): −0.891 and −0.178 and −0.017; Log2 treatment: control ratio PNMA6A (PNMA6A; HepG2 cells): 0.22 and −0.289 and −0.185
c1ccc2c(c1)cc1ccc3cccc4ccc2c1c34 [BaP],,+,+,,,,,,,
O=C1CCCCCN1 [CAP],,−,−,NGTX,− (below the reference value),,NGTX,NGTX+,,Log2 treatment: control ratio C10orf65/HOGA1 (C10orf65/HOGA1): 0.203 and 0.223 and 0.138; Ames (Salmonella typhimurium; Ames results based on NTP data): −; Log2 treatment: control ratio SLC40A1 (SLC40A1; HepG2 cells): −0.607 and −0.032 and 0.265; Log2 treatment: control ratio PNMA6A (PNMA6A; HepG2 cells): 0.312 and −0.168 and −0.165
ClC(Cl)(Cl)Cl [CCI4],,,,,− (below the reference value),,,,,Standard (rodents; [3]): NGTX
ClC(Cl)(Cl)Cl [CCl4],,+,−,,,,,NGTX+,,Log2 treatment: control ratio C10orf65/HOGA1 (C10orf65/HOGA1): 0.361 and 0.073 and −0.083; Ames (Salmonella typhimurium): −; Log2 treatment: control ratio SLC40A1 (SLC40A1; HepG2 cells): −0.888 and −0.041 and −0.185; Log2 treatment: control ratio PNMA6A (PNMA6A; HepG2 cells): 0.412 and −0.425 and −0.14
O=c1ccc2ccccc2o1 [Cou],− (below the reference value),−,−,NGTX,− (below the reference value),NGTX,NGTX,NGTX,− (below the reference value),"Log2 treatment: control ratio C10orf65/HOGA1 (C10orf65/HOGA1): −0.481 and −0.483; Log2 treatment: control ratio C10orf65/HOGA1 (C10orf65/HOGA1; listed as COU): −0.069; Ames (Salmonella typhimurium; Ames results based on NTP data): −; Log2 treatment: control ratio SLC40A1 (SLC40A1; HepG2 cells): −0.215 and −0.309; Log2 treatment: control ratio SLC40A1 (SLC40A1; HepG2 cells, listed as COU): −0.104; Log2 treatment: control ratio PNMA6A (PNMA6A; HepG2 cells): 0.073 and 0.081; Log2 treatment: control ratio PNMA6A (PNMA6A; HepG2 cells, listed as COU): 0.14"
COc1cc(/C=C/C(=O)CC(=O)/C=C/c2ccc(O)c(OC)c2)ccc1O [Cur],− (below the reference value),+,−,NGTX,− (below the reference value),NGTX,NGTX,NGTX,,Log2 treatment: control ratio C10orf65/HOGA1 (C10orf65/HOGA1): 0.113 and 0.028 and −0.293; Ames (Salmonella typhimurium; Ames results based on NTP data): −; Log2 treatment: control ratio SLC40A1 (SLC40A1; HepG2 cells): 0.174 and 0.252 and 0.253; Log2 treatment: control ratio PNMA6A (PNMA6A; HepG2 cells): −0.138 and −0.135 and 0.263
CCCCC(CC)COC(=O)c1ccccc1C(=O)OCC(CC)CCCC (stereo not drawn) [DEHP],− (below the reference value),−,,NGTX,− (below the reference value),NGTX,NGTX,NGTX,− (below the reference value),"Ames (Salmonella typhimurium): −; Log2 treatment: control ratio SLC40A1 (SLC40A1; HepG2 cells, listed as DEPH): 0.249 and −0.387 and 0.234; Log2 treatment: control ratio PNMA6A (PNMA6A; HepG2 cells, listed as DEPH): −0.264 and −0.841 and −0.034"
CN(C)N=O [DMN],,+,+,,,,GTX,GTX+,,Standard (in vivo genotoxicity designation) (rodents; in vivo): GTX; Ames (Salmonella typhimurium): +
O=C(O)Cc1ccccc1Nc1c(Cl)cccc1Cl [Diclo],− (below the reference value),,,NGTX,− (below the reference value),,,,,
ClC1C(Cl)C(Cl)C(Cl)C(Cl)C1Cl (stereo not drawn) [HCH],− (below the reference value),,,NGTX,+ (above the reference value),NGTX,NGTX,NGTX,− (below the reference value),Log2 treatment: control ratio C10orf65/HOGA1 (C10orf65/HOGA1): −0.367 and −0.143 and −0.165; Log2 treatment: control ratio SLC40A1 (SLC40A1; HepG2 cells): 0.334 and 0.924 and 0.712; Log2 treatment: control ratio PNMA6A (PNMA6A; HepG2 cells): −0.604 and −0.2 and 0.012
CO[C@@]12[C@H](COC(N)=O)C3=C(C(=O)C(C)=C(N)C3=O)N1C[C@@H]1N[C@@H]12 [MMC],,,+,,,,,,,
O=[N+]([O-])c1ccccc1 [NBZ],,−,−,NGTX,− (below the reference value),,,,,
Oc1c(Cl)c(Cl)c(Cl)c(Cl)c1Cl [PCP],− (below the reference value),,,,,,,,− (below the reference value),Standard (rodents; [3]): NGTX
"Oc1ccccc1 [Ph, Phenol]",,+,+,GTX,,GTX,GTX,GTX,,Ames (Salmonella typhimurium): −; SLC40A1 (SLC40A1): + (key: +: above the reference value; −: below the reference value); PNMA6A (PNMA6A): + (key: +: above the reference value; −: below the reference value)
CC(=O)[C@H]1CC[C@H]2[C@@H]3CCC4=CC(=O)CC[C@]4(C)[C@H]3CC[C@]12C [Prog],,,−,NGTX,− (below the reference value),,,,− (below the reference value),
Cc1noc(NS(=O)(=O)c2ccc(N)cc2)c1C [Sulfi],− (below the reference value),,−,NGTX,,,,,− (below the reference value),
O=C1O[C@H]([C@@H](O)CO)C(O)=C1O [VitC],+ (above the reference value),,,,,GTX,GTX,GTX,+ (above the reference value),"In vivo GTX (rodents; positive when at least one in vivo assay (MN, CA) positive, equivocal considered positive): +; Standard (rodents; [3]): GTX"
CC1(C)S[C@@H]2[C@H](NC(=O)[C@H](N)c3ccccc3)C(=O)N2[C@H]1C(=O)O.O.O.O [ampC],− (below the reference value),,,,− (below the reference value),,,,,Standard (rodents; [3]): NGTX
Cl[C@H]1[C@H](Cl)[C@@H](Cl)[C@@H](Cl)[C@H](Cl)[C@H]1Cl [γ-HCH],,−,−,,,,,,,Ames (Salmonella typhimurium): −
